In paper PMC5484777 (Journal of medicinal chemistry, 2016):
Entries after “also recorded” stand apart in the source; their conditions may differ.

Legend:
[1] = biological target: GluN1/2D receptors (Rattus norvegicus, UniProt P35439+Q62645); format: cell-based
[2] = biological target: GluN1/2B receptors (Rattus norvegicus, UniProt P35439+Q00960); format: cell-based
[3] = biological target: GluN1/2A receptors (Rattus norvegicus, UniProt Q00959); format: cell-based; conditions: ratio est Ki GluN1/2B / GluN1/2A
GluN1/2A receptors (Rattus norvegicus, UniProt Q00959), sequence (Q00959 23-1464, other chains not shown): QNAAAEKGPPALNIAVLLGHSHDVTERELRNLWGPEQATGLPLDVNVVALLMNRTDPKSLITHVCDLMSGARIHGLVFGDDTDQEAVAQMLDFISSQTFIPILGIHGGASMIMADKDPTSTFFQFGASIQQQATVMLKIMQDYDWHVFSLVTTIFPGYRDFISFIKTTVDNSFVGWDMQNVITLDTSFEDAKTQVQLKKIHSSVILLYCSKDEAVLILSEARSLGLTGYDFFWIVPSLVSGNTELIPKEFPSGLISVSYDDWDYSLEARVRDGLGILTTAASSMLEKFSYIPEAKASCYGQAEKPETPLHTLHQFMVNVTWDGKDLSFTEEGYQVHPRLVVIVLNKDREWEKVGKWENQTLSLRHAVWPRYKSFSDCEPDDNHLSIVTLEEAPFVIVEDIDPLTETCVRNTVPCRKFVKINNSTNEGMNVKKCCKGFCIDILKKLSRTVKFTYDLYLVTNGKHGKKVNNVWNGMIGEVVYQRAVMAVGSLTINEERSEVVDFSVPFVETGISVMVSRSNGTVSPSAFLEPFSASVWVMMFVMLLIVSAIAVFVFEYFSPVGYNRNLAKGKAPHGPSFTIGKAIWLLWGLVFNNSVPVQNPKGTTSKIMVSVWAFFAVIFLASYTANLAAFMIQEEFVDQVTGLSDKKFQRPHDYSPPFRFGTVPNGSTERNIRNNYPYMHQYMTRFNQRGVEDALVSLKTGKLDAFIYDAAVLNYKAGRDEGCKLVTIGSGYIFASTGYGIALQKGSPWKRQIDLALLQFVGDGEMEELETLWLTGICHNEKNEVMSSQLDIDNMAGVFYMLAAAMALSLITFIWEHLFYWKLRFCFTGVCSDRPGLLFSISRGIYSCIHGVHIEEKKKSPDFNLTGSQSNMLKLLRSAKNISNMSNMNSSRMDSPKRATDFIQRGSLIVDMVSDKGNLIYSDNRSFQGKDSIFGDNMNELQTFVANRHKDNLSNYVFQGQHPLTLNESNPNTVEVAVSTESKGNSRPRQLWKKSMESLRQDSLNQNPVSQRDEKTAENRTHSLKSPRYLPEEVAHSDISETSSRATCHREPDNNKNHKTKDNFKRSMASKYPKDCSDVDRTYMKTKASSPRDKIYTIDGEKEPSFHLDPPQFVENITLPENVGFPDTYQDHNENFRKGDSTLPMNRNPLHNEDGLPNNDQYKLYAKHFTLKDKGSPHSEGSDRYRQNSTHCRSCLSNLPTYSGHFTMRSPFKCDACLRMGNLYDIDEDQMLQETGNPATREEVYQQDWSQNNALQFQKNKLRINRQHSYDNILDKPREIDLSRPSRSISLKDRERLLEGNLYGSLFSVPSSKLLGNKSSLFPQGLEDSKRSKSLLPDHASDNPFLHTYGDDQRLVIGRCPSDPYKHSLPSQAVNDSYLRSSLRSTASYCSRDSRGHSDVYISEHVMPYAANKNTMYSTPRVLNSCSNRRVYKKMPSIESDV

[4] = biological target: GluN1/2A receptors (Rattus norvegicus, UniProt P35439+Q00959); format: cell-based
GluN1/2A receptors (Rattus norvegicus, UniProt P35439+Q00959), sequence (Q00959 23-1464, other chains not shown): as above

[5] = biological target: GluN1/2C receptors (Rattus norvegicus, UniProt P35439+Q00961); format: cell-based
[6] = In vivo PET-CT imaging; parameters: species or system female athymic nude mice; conditions: intravenous bolus, dynamic PET, mice
[7] = Ex vivo brain biodistribution and autoblockade of [11C]11e; format: in vivo, CD-1 mice; conditions: 15–75 min uptake, IV, mice (Figure 4A,B)
[8] = Ex vivo brain autoradiography; format: in vivo, female athymic nude mice; conditions: serial brain sections
[9] = tested on: GluN1/2A; conditions: cited from earlier work

GluN1/2D receptors, sequence (Q62645 28-1323, other chains not shown): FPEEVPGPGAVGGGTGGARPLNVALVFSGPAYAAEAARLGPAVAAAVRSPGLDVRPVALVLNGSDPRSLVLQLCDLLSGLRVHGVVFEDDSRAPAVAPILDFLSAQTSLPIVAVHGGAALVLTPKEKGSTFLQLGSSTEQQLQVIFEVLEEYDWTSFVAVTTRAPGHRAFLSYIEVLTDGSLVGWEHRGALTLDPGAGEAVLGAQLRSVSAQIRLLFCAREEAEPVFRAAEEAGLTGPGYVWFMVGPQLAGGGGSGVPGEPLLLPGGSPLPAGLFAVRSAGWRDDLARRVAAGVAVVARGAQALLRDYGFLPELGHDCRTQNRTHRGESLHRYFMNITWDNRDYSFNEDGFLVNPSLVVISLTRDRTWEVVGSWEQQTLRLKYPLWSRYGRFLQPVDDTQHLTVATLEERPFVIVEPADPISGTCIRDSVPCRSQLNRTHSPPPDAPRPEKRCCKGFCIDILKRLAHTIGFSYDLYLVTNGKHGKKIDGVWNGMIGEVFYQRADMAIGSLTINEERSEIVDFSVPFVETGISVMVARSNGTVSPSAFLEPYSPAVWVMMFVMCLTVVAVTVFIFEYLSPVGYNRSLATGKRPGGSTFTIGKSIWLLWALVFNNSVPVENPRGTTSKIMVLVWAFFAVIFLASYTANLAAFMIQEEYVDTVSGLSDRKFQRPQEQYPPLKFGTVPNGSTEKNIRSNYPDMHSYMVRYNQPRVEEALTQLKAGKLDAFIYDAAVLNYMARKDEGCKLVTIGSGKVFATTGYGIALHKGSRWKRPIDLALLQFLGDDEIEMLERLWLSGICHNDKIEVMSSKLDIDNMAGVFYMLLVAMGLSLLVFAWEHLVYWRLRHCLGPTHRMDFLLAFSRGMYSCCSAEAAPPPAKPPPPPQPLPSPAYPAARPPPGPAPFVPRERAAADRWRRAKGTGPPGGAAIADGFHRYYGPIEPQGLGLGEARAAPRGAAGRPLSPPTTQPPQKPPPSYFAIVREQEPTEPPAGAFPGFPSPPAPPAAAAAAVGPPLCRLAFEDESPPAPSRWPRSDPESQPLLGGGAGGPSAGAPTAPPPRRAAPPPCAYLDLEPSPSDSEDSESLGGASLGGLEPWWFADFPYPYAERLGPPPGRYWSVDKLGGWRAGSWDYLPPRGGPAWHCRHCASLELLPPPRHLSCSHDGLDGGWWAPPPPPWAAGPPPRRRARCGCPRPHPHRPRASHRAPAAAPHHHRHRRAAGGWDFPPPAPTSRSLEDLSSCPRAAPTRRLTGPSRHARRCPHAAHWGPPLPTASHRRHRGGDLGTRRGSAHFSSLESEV

| Compound | IC50 [1] [nM] | Ki [1] [nM] | IC50 [2] [nM] | Ki [2] [nM] | estimated Ki fold higher at GluN1/2B compared to GluN1/2A (selectivity) [3] [fold] | IC50 [4] [nM] | Ki [4] [nM] | IC50 [5] [nM] | Ki [5] [nM] | also measured |
| --- | --- | --- | --- | --- | --- | --- | --- | --- | --- | --- |
| COC(=O)C1=NN(c2ccc([124I])cc2)[C@@H](C[C@@H](N)C(=O)OC)C1 [[^124I]11d, Methyl (S)-5-((R)-2-Amino-3-methoxy-3-oxopropyl)-1-(4-[^124I]-iodophenyl)-4,5-dihydro-1H-pyrazole-3-carboxylate] | – | – | – | – | – | – | – | – | – | brain uptake by in vivo PET imaging [6]: below the threshold of detection; also recorded: no observable brain uptake |
| COC(=O)C1=NN(c2ccc([11CH3])cc2)[C@@H](C[C@@H](NC(=O)OC(C)(C)C)C(=O)OC)C1 [[^11C]11e, Methyl (S)-5-((R)-2-((tert-Butoxycarbonyl)amino)-3-methoxy-3-oxopropyl)-1-(4-[^11C]methylphenyl)-4,5-dihydro-1H-pyrazole-3-carboxylate] | – | – | – | – | – | – | – | – | – | uptake in brain regions [7]: below 1.5 % ID/g |
| COC(=O)C1=NN(c2ccc([125I])cc2)[C@@H](C[C@@H](N)C(=O)OC)C1 [[^125I]11d, Methyl (S)-5-((R)-2-Amino-3-methoxy-3-oxopropyl)-1-(4-[^125I]-iodophenyl)-4,5-dihydro-1H-pyrazole-3-carboxylate] | – | – | – | – | – | – | – | – | – | brain uptake (ex vivo autoradiography) ([8]; 40 min conscious uptake): brain region-selective uptake |
| N[C@H](C[C@H]1CC(C(=O)O)=NN1c1ccc([125I])cc1)C(=O)O [[^125I]4d, (S)-5-((R)-2-Amino-2-carboxyethyl)-1-(4-[^125I]iodophenyl)-4,5-dihydro-1H-pyrazole-3-carboxylic Acid] | – | – | – | – | – | – | – | – | – | brain uptake (ex vivo autoradiography) ([8]; 60 min conscious uptake): no evidence of brain uptake |
| C[C@H](N[C@@H](c1cccc2[nH]c(=O)c(=O)[nH]c12)P(=O)(O)O)c1ccc(Br)cc1 [NVP-AAM077, [(R)-[(S)-1-(4-bromophenyl)-ethylamino]-(2,3-dioxo-1,2,3,4-tetrahydroquinoxalin-5-yl)-methyl]-phosphonic acid] | – | – | – | – | – | – | – | – | – | binding affinity fold higher for GluN1/2A compared to GluN1/2B [9]: 5.2 fold |

Further lines, with some results ahead:

| IC50 [1] [nM] | Ki [1] [nM] | IC50 [2] [nM] | Ki [2] [nM] | estimated Ki fold higher at GluN1/2B compared to GluN1/2A (selectivity) [3] [fold] | IC50 [4] [nM] | Ki [4] [nM] | IC50 [5] [nM] | Ki [5] [nM] | Compound | also measured |
| --- | --- | --- | --- | --- | --- | --- | --- | --- | --- | --- |
| 920 ± 20 | 290 ± 10 | 860 ± 10 | 330 ± 40 | 7.6 | 160 ± 10 | 43 ± 2 | 920 ± 20 | 230 ± 10 | N[C@H](C[C@H]1CC(C(=O)O)=NN1c1ccc(F)cc1)C(=O)O [4a, (S)-5-((R)-2-Amino-2-carboxyethyl)-1-(4-fluorophenyl)-4,5-dihydro-1H-pyrazole-3-carboxylic Acid] | – |
| 520 ± 20 | 160 ± 10 | 280 ± 20 | 110 ± 10 | 4.0 | 98 ± 4 | 27 ± 1 | 180 ± 10 | 44 ± 2 | N[C@H](C[C@H]1CC(C(=O)O)=NN1c1ccc(Cl)cc1)C(=O)O [4b, (S)-5-((R)-2-Amino-2-carboxyethyl)-1-(4-chlorophenyl)-4,5-dihydro-1H-pyrazole-3-carboxylic Acid] | – |
| – | – | 700 ± 40 | 270 ± 20 | – | 910 ± 80 | 250 ± 20 | 560 ± 20 | 140 ± 10 | N[C@H](C[C@H]1CC(C(=O)O)=NN1c1ccc(I)cc1)C(=O)O [4d, (S)-5-((R)-2-Amino-2-carboxyethyl)-1-(4-iodophenyl)-4,5-dihydro-1H-pyrazole-3-carboxylic Acid] | – |
| 630 ± 40 | 200 ± 10 | 250 ± 20 | 94 ± 7 | – | 91 ± 4 | 25 ± 1 | 190 ± 10 | 47 ± 3 | N[C@H](C[C@H]1CC(C(=O)O)=NN1c1ccc(Br)cc1)C(=O)O [4c, (S)-5-((R)-2-Amino-2-carboxyethyl)-1-(4-bromophenyl)-4,5-dihydro-1H-pyrazole-3-carboxylic Acid] | – |
| – | 440 ± 20 | 690 ± 50 | 250 ± 20 | 5.3 | 180 ± 10 | 48 ± 3 | 380 ± 20 | 96 ± 5 | Cc1ccc(N2N=C(C(=O)O)C[C@@H]2C[C@@H](N)C(=O)O)cc1 [4e, (S)-5-((R)-2-Amino-2-carboxyethyl)-1-p-tolyl-4,5-dihydro-1H-pyrazole-3-carboxylic Acid] | – |
